Reference: patent US12685777B2, “Compositions, systems, and methods for modulating a target gene” (The Board of Trustees of the Leland Stanford Junior …, priority 2022, dated 2026)
Read-outs that look alike come from different tables or passages of the source.

Tests used:
[1] = tested on: BRD4, Pol II ser 2 phos, H3K27ac occupancy; experiment: ChIP-seq of BRD4, Pol II ser 2 phos, H3K27ac in KARPAS422 cells; assay type: cell-based, human
Description: Cells were washed in PBS and crosslinked for 12 minutes in CiA Fix Buffer (50 mM HEPES pH 8.0, 1 mM EDTA, 0.5 mM EGTA, 100 mM NaCl) with addition of formaldehyde to a final concentration of 1%. The crosslinking reaction was quenched by glycine added at 0.125 M final concentration. Crosslinked cells were centrifuged at 1,000×g for 5 minutes. Nuclei were prepared by 10 minute incubation of resuspended pellet in CiA NP-Rinse 1 buffer (50 mM HEPES pH 8.0, 140 mM NaCl, 1 mM EDTA, 10% glycerol, 0.5% IPEGAL CA-630, 0.25% Triton X100) followed by wash in CIA NP-Rinse 2 buffer (10 mM Tris pH 8.0, 1 mM EDTA, 0.5 mM EGTA, 200 mM NaCl). The pellet was resuspended in CiA Covaris Shearing Buffer (0.1% SDS, 1 mM EDTA pH 8.0, 10 mM Tris HCl pH 8.0) with 1000× protease inhibitors (Roche) and sonicated for 20 minutes with Covaris E220 sonicator (Peak Power 140, Duty Factor 5.0, Cycles/Burst 200). The distribution of fragments was confirmed with agarose gel. 300 μL of chromatin per ChIP was used with anti-BRD4 antibodies (Cell Signaling E2A7X). 50 μg of chromatin was used with anti-Pol II ser 2 phos (Abcam ab5095) and anti-Pol II ser 5 phos (ActiveMotif 3E8) antibodies. 25 μg of chromatin was used with anti-H3K27ac (Abcam ab4729). For each Pol II ser 2 phos, Pol II ser 5 phos, and H3K27ac ChIP, exactly 20 ng (for Pol II ser 2 phos and ser 5 phos) or 50 ng (for H3K27ac) Drosophila chromatin (ActiveMotif #53083) was spiked-in with 2 μL spike-in-chromatin-specific antibody (ActiveMotif #61686). After overnight incubation at 4° C. in IP buffer (50 mM HEPES pH 7.5, 300 mM NaCl, 1 mM EDTA, 1% Triton X100, 0.1% sodium deoxycholic acid salt (DOC), 0.1% SDS), Ips were washed twice with IP buffer, once with DOC buffer (10 mM Tris pH 8, 0.25 M LiCl, 0.5% IPEGAL CA-630, 0.5% sodium deoxycholic acid salt (DOC), 1 mM EDTA), and, once with 10 mM Tris/1 mM EDTA buffer (TE) pH 8. Ips and inputs were reverse-crosslinked in TE/0.5% SDS/0.5 μg/μL proteinase K for 55° C./3 hours then 65° C./18 hours, then DNA was purified using a PCR cleanup spin column (Takara #74609). The sequencing library preparation was performed using NEBNext Ultra II DNA kit (#E7645S). Libraries were sequenced on an Illumina NovaSeq (Novogene).
The data quality was checked using fastqc. The raw reads were trimmed from adapters with trim_galore (parameters: —paired—255 Ilumine) and raw reads were aligned to hg38 human genome assembly and the dm6 fly genome assembly using bowtie2 (parameters: —local—maxins 1000). Low quality reads, duplicated reads and reads with multiple alignments were removed using samtools (Li et al., Bioinformatics (2009) 25: 2078-2079) and Picard (broadinstitute.github.io/picard/). Macs2 was used to map position of peaks with FDR cutoff of 0.05. Bedtools (Quinlan et al, Bioinformatics (2010) 26: 841-842) was used to find consensus set of peaks by merging peaks across multiple conditions (bedtools merge), count number of reads in peaks (bedtools intersect—c) and generate genome coverage (bedtools genomecov-bga). deepTools (Ramirez et al., Nucleic Acids Research (2016) 44: W160-W165). […] This procedure was carried out on a per-antigen basis (i.e., the H3K27ac ChIPs were treated separately from the Pol II ser 2 phos ChIPs which were separate from the Poll II ser 5 phos ChIPs). The average percentage of reads in each sample that mapped to the fly genome was 1.8±1.4% (mean±s.d.). All browser tracks and metaprofiles shown were calculated with spike-in normalized and input-subtracted data. The peak differential analysis and PCA analysis was performed using DESeq2^82.
BRD4 and other BET proteins have previously been implicated largely in transcriptional elongation, particularly in mediating P-TEFb/CDK9 activation of RNA Polymerase II ([…]) elongation activity by phosphorylation of serine 2 of the C-terminal domain (CTD) of Pol II ([…] ser 2 phos). […]

KARPAS422 = experiment: Cell viability (resazurin/PrestoBlue) of KARPAS422 DLBCL cells; assay type: cell-based, human
Description: 30,000 cells were plated in 100 μL media per well of a 96 well plate and treated with drug for indicated times and doses. A resazurin-based indicator of cell health (PrestoBlue, ThermoFisher #P50200) was added for 1.5 hours after which the fluorescence ratio at 560/590 nm was recorded. The background fluorescence was subtracted and the signal was normalized to DMSO-treated cells. EC50 measurements on cell lines were done with 4 biological repeats by separate cell passages maintained by 3 independent investigators. Fit of dose-response curves to data and statistical analysis was performed using drc package in R using the four-parameter log-logistic function.
These molecules were tested for their effect on viability of the chemotherapy (CHOP, or cyclophosphamide, hydroxydaunorubicin, Oncovin, and prednisone)-resistant DLBCL cell line, KARPAS422. […] Cell killing was essentially complete at 72 hours (FIG. 27, Panel D).

[2] = after 2 hours, of 51,678 consensus peaks

Compound: CNC(=O)COc1cc2cc(Nc3nc(N4CCC(C(=O)NCCCCCCCNC(=O)C[C@@H]5N=C(c6ccc(Cl)cc6)c6c(sc(C)c6C)-n6c(C)nnc65)CC4)ncc3Cl)cc(OC)c2n(C)c1=O [TCIP1]
- Increase of BRD4 at promoters of BCL6 target genes / genomic BCL6 binding sites ([1]; ChIP-seq, one hour): 50%
- H3K27ac peaks decreased [1, 2]: 70 peaks
- H3K27ac peaks increased [1, 2]: 126 peaks
- EC50 (KARPAS422; KARPAS422 (CHOP-resistant, TP53-mutant DLBCL), 72 hours after addition of drug, read-out: EC50 of cell killing / cell viability): 1.3 nM
- EC50 (KARPAS422; KARPAS422, without cell cycle arrest, read-out: EC50 of cell viability without arrest): 1.1 nM

Compound: CNC(=O)COc1cc2cc(Nc3nc(N4CCC(C(=O)NCCCCCCCNC(=O)C[C@@H]5N=C(c6ccc(Cl)cc6)c6c(sc(C)c6C)-n6c(C)nnc65)CC4)ncc3Cl)cc(OC)c2n(C)c1=O [JWZ-7-7, (S)-1-(5-chloro-4-((8-methoxy-1-methyl-3-(2-(methylamino)-2-oxoethoxy)-2-oxo-1,2-dihydroquinolin-6-yl)amino)pyrimidin-2-yl)-N-(7-(2-(4-(4-chlorophenyl)-2,3,9-trimethyl-6H-thieno[3,2-f][1,2,4]triazolo[4,3-a][1,4]diazepin-6-yl)acetamido)heptyl)piperidine-4-carboxamide]
- Time to Pol II serine 2 phosphorylation (transcriptional elongation) at BCL6 targets ([1]; 10 nM): ≤ 15 min
- Loss of BRD4 from enhancers and super enhancers ([1]; ChIP-seq): about 10%
- Fraction of total BRD4 recruited / relocalized to BCL6 target genes ([1]; Karpas 422, one hour): about 10%
- EC50 (KARPAS422; Homo sapiens, KARPAS-422, KARPAS422 (CHOP-resistant, TP53-mutant DLBCL), 72 hours after addition of drug, read-out: EC50 of cell killing / cell viability): 1.3 nM
